Data on 1 compound can be found in patent publication US11865182B2, “Product and process for employing GC7 (N1-guanyl-1,7-diaminoheptane) based antigen binding conjugates in cancer therapy” (priority 2017, dated 2024).

This assay relates to bi-lateral subcutaneous tumors derived from 779E cells. As to the kind of experiment: in-vivo analysis of ADCs cytotoxic effect in subcutaneous mouse model (loss of GFP fluorescence signal, IVIS imaging). The following applies: nude mice, 779E subcutaneous tumors, tail vein injection, after 12 days. The method, then:
After purification via gel chromatography, where the cytotoxicity effect of the drug on the eIF5A positive tumor cell compared to eIF5A negative cells was determined by measuring the loss of fluorescence signal of the GFP tagged tumor cells after administration of the ADC in vivo via tail vein injection in mice using an IVIS Spectrum in vivo imaging system.

With `N=C(N)NCCCCCCCN` [GC7, N1-guanyl-1,7-diaminoheptane], the tumor growth inhibition worked out at 0.4%.
